Values joined by “and” are separate entries in the source; they are usually repeats but may differ in a detail not shown here. Identical values can stand only once. Active and inactive are the calls of the source.
Experiments:
cells [1] = assay: cells
[2] = molecular target: T1, Runt-related transcription factor 1/Core-binding factor subunit beta (Homo sapiens, UniProt Q01196+Q13951); assay: Runt domain/CBFb-SMMHC interaction disruptors – biochemical, TR-FRET (AID 1438); format: protein assay
cells [3] = details: A549
[4] = molecular target: T1, Runt-related transcription factor 1/Core-binding factor subunit beta; assay: disruptors of Runt domain/CBFb-SMMHC interaction – biochemical, FRET, Cerulean-Runt, Venus-CBFb-SMMHC, uHTS, […] (AID 1434); format: protein assay
cells [5] = details: HEK293;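 also: cells exposed to compound for 48 hours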
[6] = inhibition of ADAM10 peptide cleavage – biochemical, FRET peptide substrate, recombinant human ADAM10, selectivity assay for ADAM17 exosite inhibitor project, dose response (AID 743259);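 also: ADAM10 enzyme cleaving a FRET peptide substrate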
[7] = molecular target: T2, Disintegrin and metalloproteinase domain-containing protein 17 (Homo sapiens, UniProt P78536); assay: exosite inhibitors of ADAM17, dose response, biochemical (AID 743260)
[8] = molecular target: T2, Disintegrin and metalloproteinase domain-containing protein 17; assay: inhibition of ADAM17 substrate cleavage – biochemical, quenched FRET substrate, counter-screen for ADAM10 exosite inhibitor project, dose response (AID 743253)
[9] = potency of ADAM10 substrate cleavage blockers – biochemical, QFRET, dose response (AID 743254);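 also: ADAM10 enzyme with the DM2 quenched FRET peptide as substrate; EDANS fluorescence gain as the protease cuts the substrate; inhibitor potency against ADAM10 proteolytic activity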
[10] = general mammalian cell viability loss – inhibitor set, cherry-pick, set 2, cytotoxicity control for miR-122 modulator project, dose response (AID 720697); format: functional, cell-based
[11] = general mammalian cell viability loss – activator set, cherry-pick, cytotoxicity control for miR-122 modulator project, dose response (AID 720690); format: functional, cell-based;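 also: HEK293T human cells scored for general mammalian cytotoxicity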
[12] = CMV-driven luciferase expression suppression in HEK293 – cell-based, luminescence, dry powder, counter-screen for Pax8 inhibitor project, dose response (AID 743020); format: functional
Paired box protein Pax-8 = Paired box protein Pax-8 (Homo sapiens, UniProt Q06710); assay: PAX8 transcriptional activity inhibition in RMG-I – RMG-I cells, luciferase, cherry-pick, dose response (AID 687027); format: functional, cell-based;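 also: luciferase reporter driven by Pax8 target thyroperoxidase promoter measured by SteadyGlo luminescence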
[13] = OVCAR-3 cell viability loss – plate reader, dry powder samples, PAX8 inhibitor project, dose response (AID 743044); format: functional, cell-based
[14] = A2780 cell killing – plate reader, dry powder samples, cytotoxicity control, dose response (AID 743046); format: functional, cell-based
HEK293 = assay: viability loss in HEK293T cells – cell-based, ATP luminescence, cherry-pick samples, cytotoxicity control, dose response (AID 687005); format: functional; details: Homo sapiens;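 also: cells exposed to compound for 48 hours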
[15] = HEK293 Cytotoxicity Assay Measured in Cell-Based System Using Plate Reader - 7071-01_Inhibitor_Dose_CherryPick_Activity_Set2.; format: functional
[16] = PAX8-dependent cell viability loss – plate reader, dry powder, dose response (AID 743049); format: functional, cell-based
[17] = IGROV1 cell killing – plate reader, dry powder samples, PAX8 inhibitor project, dose response (AID 743043); format: functional, cell-based; details: IGROV-1
[18] = OVCAR8 cell viability loss – plate reader, dry powder samples, PAX8 project, dose response (AID 743197); format: functional, cell-based; details: OVCAR-8
[19] = inhibitors acting on PAX2 in cells – cell-based, plate reader, dry powder samples, selectivity assay for PAX8 inhibitor project, dose response (AID 743048); format: functional;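 also: HEK293 cells carrying a WT1 promoter luciferase reporter driven by expressed Pax2; potency is for inhibition of Pax2 driven reporter signal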
[20] = COV362 cell viability loss – plate reader, dry powder, SA12, cytotoxicity control for PAX8 inhibitor project, dose response (AID 743144); format: functional, cell-based
[21] = PAX5 cellular inhibition readout – cell-based, plate reader, dry powder samples, selectivity assay for PAX8 inhibitor project, dose response (AID 743047); format: functional;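 also: HEK293 cells carrying a Pax5 driven CD19 promoter luciferase reporter; potency of inhibitors that lower reporter luminescence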
[22] = COV434 cell viability loss – plate reader, dry powder, SA7, cytotoxicity control for PAX8 inhibitor project, dose response (AID 743145); format: functional, cell-based
[23] = molecular target: Protein disulfide-isomerase (Homo sapiens, UniProt P07237); assay: inhibition of PDI-mediated insulin reduction – biochemical, turbidity, dry powder samples, set 2, confirmation (AID 652146)
[24] = molecular target: Metabotropic glutamate receptor 3 (Rattus norvegicus, UniProt P31422); assay: inhibitors of rat mGlu3 Galpha15 signaling – TREx293 cells, calcium flux, mGlu3 NAM project, dose response (AID 651840); format: functional
[25] = molecular target: NAD-dependent protein deacylase sirtuin-5, mitochondrial (Homo sapiens, UniProt Q9NXA8); assay: blockers of sirtuin-5 peptide desuccinylation – biochemical, fluorescence imaging, cherry-pick, set 6, dose response (AID 720597)
[26] = Late stage assay provider results from the probe development effort to identify inhibitors of the Plasmodium falciparum M18 Aspartyl Aminopeptidase (M18AAP): radiolabel-based cell-based dose response assay to identify compounds that inhibit P. falciparum growth in RBCs, Set 2..; format: functional
[27] = lung carcinoma cell viability loss – CellTiter-Glo luminescence, dry powder, set 17, dose response (AID 1117284); format: functional, cell-based; details: A549
[28] = inhibitors of orthopox intermediate gene expression, dose response, cell-based, single fluorophore reporter, dry powder (AID 1117271); format: functional
[29] = Single fluorophore orthopox expression reporter, late gene expression Measured in Cell-Based and Microorganism Combination System Using Plate Reader - 2142-08_Inhibitor_Dose_DryPowder_Activity.; format: functional
[30] = Orthopox viral replication plaque formation Measured in Cell-Based and Microorganism Combination System Using Imaging - 2142-05_Inhibitor_Dose_DryPowder_Activity.; format: functional
[31] = toxicity to A549 lung cells – cell-based, plate reader, dry powder, set 6, cytotoxicity control, dose response (AID 743312); format: functional
cells [32] = details: HEK293; remark: listed apart in the source;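 also: cells exposed to compound for 48 hours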
[33] = TB: CFU replicating Measured in Microorganism System Using Imaging - 7108-05_Inhibitor_Dose_DryPowder_Activity_Set2.; format: functional
[34] = Luminescence Cell-Based Dose Retest to Confirm Inhibitors of Cancer Stem Cells. [Related pubchem assays (depositor defined):AID2717, AID2721]; format: functional; details: Homo sapiens
[35] = reduction of Shn3 3'UTR-driven luciferase in osteoblasts – cell-based, Clone20 osteoblasts, firefly luciferase, cherry-picked, dose response (AID 624132); format: functional;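 also: firefly luciferase luminescence from reporter carrying the Shn3 3'UTR in osteoblasts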
cells [36] = format: functional, cell-based
[37] = molecular target: Nuclear receptor subfamily 0 group B member 1 (Homo sapiens, UniProt P51843); format: functional, cell-based;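 also: HEK293T cells transfected with SF-1 and DAX-1 plus StAR promoter luciferase reporter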
[38] = non-specific 3'UTR reporter inhibition in Clone20-Shn3RL – cell-based, Renilla luciferase, cherry-picked, counter-screen for Shn3 inhibitor project, dose response (AID 624133); format: functional
[39] = HEK-293T cell viability reduction – luminescence, B-cell screen hits, cytotoxicity control for BCR NF-kB inhibitor project, dose response (AID 489021); format: functional, cell-based;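 also: HEK-293T cells carrying an NF-kB luciferase reporter; cells exposed to compound for about 14 hours before viability readout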
INS1 = assay: INS-1E survival protection against cytokine death – cell-based, luminescence, retest, dose response (AID 449756); format: functional;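 also: cell death triggered by IL-1 beta plus TNF-alpha plus IFN-gamma mixture; protective hits raise ATP signal compared with cytokine alone wells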
Major prion protein = Major prion protein (Homo sapiens, UniProt P04156); format: functional, cell-based
cells [40] = assay: cells; remark: listed apart in the source
[41] = cytotoxicity toward HT-29 cells – cell-based, CellTiter-Glo luminescence, IC50, dose response (AID 1117330); format: functional
[42] = cytotoxicity toward HCT116 cells – cell-based, CellTiter-Glo luminescence, IC50, dose response (AID 1117332); format: functional; details: HCT-116
[43] = CellTiter-Glo luminescence survival assay, SW480 colon tumor line, concentration-response curve, half-maximal inhibitory concentration (AID 1117338); format: functional
[44] = Reduced DLD-1 viability, concentration-response, CellTiter-Glo luminescence (AID 1117352); format: functional
[45] = RKO cell viability reduction, dose response, CellTiter-Glo luminescence (AID 1117322); format: functional
[46] = cytotoxicity toward Colo320 cells – cell-based, CellTiter-Glo luminescence, IC50, dose response (AID 1117334); format: functional; details: COLO 320
P388/ADR = assay: cells; format: functional; details: Mus musculus
P388 = assay: cells; format: functional; details: Mus musculus
[47] = SNU-C1 cell viability reduction, dose response, CellTiter-Glo luminescence (AID 1117323); format: functional, cell-based
[48] = HCT116 cell viability decrease, GSK3B pretreatment – CellTiter-Glo, IC50, dose response (AID 1117339); format: functional; details: HCT-116
[49] = IC50 of insulin release inhibition, rat insulinoma INS-1E line, 5 mM glucose, cell-based (AID 1117331); format: functional
cells [50] = format: functional, cell-based; details: INS-1E
[51] = rise of 2N DNA cells, HeLa – IC50, dose response (AID 1117349); format: functional, cell-based
[52] = rise of 4N DNA cells, HeLa – IC50, dose response (AID 1117351); format: functional, cell-based

For `CCN(CC)c1ccc2cc(C(N)=O)c(=O)oc2c1`, the AC50 (cells [1]) was 0.573 µM (active).

For `O=c1[nH]c(=O)c2nc(-c3ccc(Cl)cc3)cnc2[nH]1`, the IC50 [2] was > 100 µM (inactive), the AC50 (cells [3]) was > 52 µM (inactive) and the IC50 [4] was 0.643 µM (active). The AC50 (cells [5]) was > 52 µM (inactive).

In the case of `O=C(NCC(c1ccc(F)cc1)N1CCOCC1)c1ccc(Br)o1` (configuration not stated), the IC50 [6] is reported as > 69.5 µM (inactive) and the IC50 [7] is reported as > 69.5 µM (inactive).

For `O=C(NC(Cc1c[nH]c2ccccc12)C(=O)Nc1ccc(OC(F)(F)F)cc1)c1cccs1` (configuration not stated), the IC50 [8] was > 69.5 µM (inactive) and the IC50 [9] was 11 µM (inactive).

With `C[C@H](CO)N1C[C@H](C)[C@@H](CN(C)C(=O)c2ccc3c(c2)OCO3)Oc2cc(C#Cc3ccccc3F)ccc2S1(=O)=O` the AC50 [10] was 9.58 µM (active), the AC50 [11] was 17.7 µM (active) and the AC50 [12] was 62.6 µM (active). The AC50 (Paired box protein Pax-8) was 6.89 µM (active).

In the case of `CC(C)(C)[S+]([O-])N1Cc2cc(C(=O)NCCCN3CCOCC3)nc(-c3cccc(C#CCC4CCCC4)c3)c2[C@@H]1CCO` (some centres not stated), the AC50 [13] is reported as 40.4 µM (active), the AC50 [14] is reported as 4.02 µM (active) and the AC50 (Paired box protein Pax-8) is reported as 24 µM (active).

For `COC(=O)C1=C(C)N(Cc2ccc(Cl)cc2)C(=S)NC1c1cccc(F)c1` (configuration not stated), the AC50 (HEK293) was 21.4 µM (active) and the AC50 [15] was 21.4 µM (active).

With `N#C[C@@H]1[C@@H](c2ccc(C#Cc3ccccc3F)cc2)[C@H](CO)N1C(=O)C1CCCCC1` the AC50 [16] was 28.6 µM (active), the AC50 [17] was 33.4 µM (active) and the AC50 [18] was 37.5 µM (active). For the same compound, the AC50 [19] was 53.3 µM (active), the AC50 [20] was 32.4 µM (active) and the AC50 [21] was 25.8 µM (active). The AC50 (Paired box protein Pax-8) was 9.74 µM (active) and the AC50 [22] was 25 µM (active).

In the case of `CCOC(=O)C1(Cc2ccccc2)CCN(Cc2ccc(O)c(Cl)c2)CC1`, the AC50 [23] is reported as > 30 µM (inactive).

With `CCCCC1(O)CCCN(C(=O)c2ccc(C#Cc3ccc(OC)cc3)cc2)C1` (configuration not stated) the IC50 [24] was 2.92 µM.

In the case of `CCC(=O)N1C[C@@H](C)[C@@H](OC)CN(C)C(=O)c2cc(NC(=O)CC(F)(F)F)ccc2OC[C@@H]1C`, the AC50 [25] is reported as 4 µM (active).

For `Oc1ccc(CCNc2c3ccccc3nc3ccccc23)cc1`, the IC50 [26] was 0.7 µM (active).

With `C[C@@H](O)C#Cc1ccc2c(c1)O[C@@H](CN(C)Cc1ccc(-c3ccccc3Cl)cc1)[C@@H](C)CN([C@@H](C)CO)S2(=O)=O` the AC50 [27] was > 52 µM (inactive), the AC50 [28] was 1.43 µM (active) and the AC50 [29] was 1.18 µM (active). The AC50 [30] was 0.601 µM (active).

With `CC(C)c1ccccc1NCCn1c(=S)[nH]c2ccccc21` the AC50 [31] was 21.1 µM (active) and the AC50 (cells [32]) was 27.5 µM (active).

In the case of `Cn1c(NC(=O)c2ccccc2F)nc2ccccc21`, the AbsAC90 [33] is reported as 128.74 µM.

For `C[C@H]1CCC/C=C/[C@@H]2C[C@H](O)C[C@H]2[C@H](O)/C=C/C(=O)O1` [BREFELDIN A], the AC50 [34] was < 0.16 µM (active), the AC50 [35] was 3.15 µM (active) and 2.2 µM (active) and the IC50 (cells [36]) was > 67.6 µM (inactive). The IC50 [37] was 0.134 µM (active), the AC50 [38] was 10.3 µM (active) and the IC50 [39] was > 80 µM (inactive). For the same compound, the AC50 (INS1; Rattus norvegicus, INS1) was 1.03 µM (active), the AC50 (INS1; ins1) was 1.06 µM (active) and the IC50 (Major prion protein) was 3.5 µM (active). The AC50 (Paired box protein Pax-8) was < 0.26 µM (active) and the IC50 (cells [40]) was > 138 µM (inactive).

In the case of `CCCCCCCCCCCCCCCCOP(=O)([O-])OCC[N+](C)(C)C` [MILTEFOSINE], the IC50 [41] is reported as 1.96 µM (active), the IC50 [42] is reported as 3.39 µM (active) and the IC50 [43] is reported as 0.478 µM (active). For the same compound, the IC50 [44] was 1.23 µM (active), the IC50 [45] was 0.437 µM (active) and the IC50 [46] was 1.49 µM (active). For the same compound, the GI50 (P388/ADR) was 35.4 µM (inactive), the GI50 (P388) was 21.2 µM (inactive) and the IC50 [47] was 0.965 µM (active). For the same compound, the IC50 [48] was 1.48 µM (active).

For `Nc1ccc2cc3ccc(N)cc3nc2c1` [PROFLAVINE HEMISULFATE], the IC50 [49] was 20.6 µM (inactive), the IC50 (cells [50]) was > 33.3 µM (inactive) and the IC50 [51] was > 10 µM (inactive). The IC50 [52] was > 10 µM (inactive).
